The text below walks through data of patent US10344019B2 (priority 2010, dated 2019).

What all share (assay type): cell-based
The subject of test [1] is HCV 1a RLuc cells (dicistronic genotype 1a H77 replicon, RLuc reporter). Description: microbe, parasite or virus in culture. Particulars: Hepatitis C virus, genotype 1a H77 RLuc replicon; read-out: 1a. A digest of the protocol: (§1)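 Replicon cells stably carrying the listed RLuc-encoding dicistronic replicons were seeded and treated with DMSO serial dilutions of compound (10 mM stocks) diluted into culture medium. After 72 h, cells were lysed and Renilla luciferase activity measured. EC50 was derived by non-linear regression.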
On the technique in general: Replicon systems follow genome replication, usually without infectious particles.

Test [2] deals with HCV 1b RLuc cells (dicistronic genotype 1b Con1 replicon, RLuc reporter). Description: microbe, parasite or virus in culture. Particulars: Hepatitis C virus, read-out: 1b (nM). A digest of the protocol: as §1
For test [3], the system named is HCV 2a JFH-1 Rluc cells (dicistronic genotype 2a JFH-1 replicon, RLuc reporter). Description: microbe, parasite or virus in culture. Particulars: Hepatitis C virus, genotype 2a JFH-1 RLuc replicon; read-out: 2a JFH. A digest of the protocol:
as §1

Test [4] deals with HCV 2b Rluc cells (NS5A chimeric genotype 2a JFH-1 replicon with genotype 2b MD2b-1 NS5A gene, M31 present). Description: microbe, parasite or virus in culture. Particulars: Hepatitis C virus, read-out: 2b. In a few lines:
as §1

In test [5] the test system is HCV 3a RLuc cells (NS5A chimeric genotype 1b Con1 replicon with consensus genotype 3a NS5A gene). Description: microbe, parasite or virus in culture. Particulars: Hepatitis C virus, read-out: 3a, genotype 3a NS5A chimeric replicon. A digest of the protocol: as §1
The test system of test [6] is Q30R in genotype 1a NS5A, 1a Rluc replicon transfected into Huh-7 cured-51 cells. Description: HCV replicon assay, resistance mutant 1a Q30R. Particulars: Hepatitis C virus, Huh-7, read-out: 1a Q30R. Here is the method:
Evaluation of cell-based anti-HCV activity: Antiviral potency (EC50) was determined using a Renilla luciferase (RLuc)-based HCV replicon reporter assay. To perform the assay for genotype 1 and 2a JFH-1, HCV 1b RLuc cells (harboring a dicistronic genotype 1b Con1 replicon that encodes a RLuc reporter), or HCV 1a RLuc cells (harboring a dicistronic genotype 1a H77 replicon that encodes a RLuc reporter), or HCV 2a JFH-1 Rluc cells (harboring a dicistronic genotype 2a JFH-1 replicon that encodes a RLuc reporter) were dispensed into 384-well plates. To perform the assay for genotype 2a (with M31 present) or 2b, HCV 2a Rluc or 2b Rluc cells (both with M31 present) harboring a dicistronic NS5A chimeric genotype 2a JFH-1 replicon that encodes a RLuc reporter and either genotype 2a J6 strain NS5A gene or genotype 2b MD2b-1 NS5A gene (based on Los Alamos HCV database isolates, both with M31 present) respectively, were dispensed into 384-well plates. To perform the assay for genotype 3 and 4, HCV 3a RLuc or 4a Rluc cells harboring a dicistronic NS5A chimeric genotype 1b Con1 replicon that encodes a RLuc reporter and either a consensus genotype 3a NS5A gene or genotype 4a NS5A gene (based on Los Alamos HCV database isolates) respectively, were dispensed into 384-well plates. Compounds were re-suspended in DMSO at a concentration of 10 mM and serially diluted in DMSO either manually or using an automated pipeting instrument. Serially diluted compounds were mixed with cell culture media and added to the seeded cells. […] 72 hours later, cells were lysed and Renilla luciferase activity quantified as recommended by the manufacturer (Promega-Madison, Wis.). Non-linear regression was performed to calculate EC50 values.
To determine the antiviral potency (EC50) against resistance mutants, resistance mutations, including M28T, Q30R, Q30H, L31M, and Y93C in genotype 1a NS5A and Y93H in genotype 1b NS5A, were introduced individually into either 1a Rluc or 1b Rluc replicons described above by site directed mutagenesis. Replicon RNA of each resistant mutant was transfected into Huh-7 cured-51 cells and antiviral potency was determined on these transfected cells as described above.

The test system of test [7] is HCV 2a Rluc cells (NS5A chimeric genotype 2a JFH-1 replicon with genotype 2a J6 strain NS5A gene, M31 present). Description: HCV replicon reporter assay, genotype 2a J6 (M31 present). Particulars: Hepatitis C virus, read-out: 2a J6. A digest of the protocol:
as §1

On to `COC[C@H]1C[C@@H](c2ncc(-c3ccc4c(c3)COc3cc5c(ccc6nc([C@@H]7C[C@@H]8C[C@@H]8N7C(=O)[C@@H](NC(=O)OC)C(C)C)[nH]c65)cc3-4)[nH]2)N(C(=O)[C@H](NC(=O)OC)c2ccccc2)C1` [Example 636], for which the EC50 in test [1] is 1 to 999 pM; in test [2] it was 0.011 nM; in test [3] it was 1 to 999 pM; in test [4] it was 1 to 999 pM; in test [5] it was 1 to 990 pM; in test [6], 1 to 999 pM. Also, in test [7], the EC50 was 1 to 999 pM.

Take `COC(=O)N[C@H](C(=O)N1[C@@H](C)CC[C@H]1c1ncc(-c2cc3c4c(c2)OCc2cc(-c5cnc([C@@H]6C[C@H](C)CN6C(=O)[C@H](NC(=O)OC)c6ccccc6)[nH]5)cc(c2-4)OC3)[nH]1)C(C)C` [Example 586]: the EC50 in test [1] was 1 to 999 pM; in test [2] it was 0.011 nM; in test [3] it was 1 to 999 pM; in test [4] it was 1 to 999 pM; in test [5], 1 to 990 pM; in test [6] it was 1 to 999 pM. Further, the EC50 in test [7] lay in the range of 1 to 999 pM.

In the case of `COC[C@H]1C[C@@H](c2ncc(-c3ccc4c(c3)COc3cc5c(ccc6nc([C@@H]7CCCN7C(=O)[C@H](NC(=O)OC)c7ccccc7)[nH]c65)cc3-4)[nH]2)N(C(=O)[C@@H](NC(=O)OC)[C@@H](C)OC)C1` [Example 626], the EC50 in test [1] was 1 to 999 pM; in test [2], 0.03 nM; in test [3] it was 1 to 999 pM; in test [4] it was 1 to 999 pM; in test [5] it was 1 to 990 pM; in test [6], 1 to 999 pM. Besides, in test [7], the EC50 was in the range of 1 to 999 pM.

As for `COC[C@H]1C[C@@H](c2nc3ccc4cc5c(cc4c3[nH]2)OCc2cc(-c3cnc([C@@H]4CCCN4C(O)[C@@H](NC(=O)OC)[C@@H](C)OC)[nH]3)ccc2-5)N(C(=O)[C@H](NC(=O)OC)c2ccccc2)C1` (some centres unmarked) [Example 618], the EC50 was 1 to 999 pM in test [1]; 0.02 nM in test [2]; 1 to 999 pM in test [3]; 1 to 999 pM in test [4]; 1 to 990 pM in test [5]; 1 to 999 pM in test [6]. The EC50 in test [7] is 1 to 999 pM.

Regarding `COC[C@H]1C[C@@H](c2ncc(-c3cc4c5c(c3)OCc3cc(-c6cnc([C@@H]7C[C@H](C)CN7C(=O)[C@H](NC(=O)OC)c7ccccc7)[nH]6)cc(c3-5)OC4)[nH]2)N(C(=O)[C@@H](NC(=O)OC)C(C)C)C1` [Example 611], the EC50 is 1 to 999 pM in test [1]; 0.013 nM in test [2]; 1 to 999 pM in test [3]; 1 to 999 pM in test [4]; 1 to 990 pM in test [5]; 1 to 999 pM in test [6]. Moreover, in test [7], the EC50 was in the range of 1 to 999 pM.

`COC[C@H]1C[C@@H](c2ncc(-c3ccc4c(c3)COc3cc5c(ccc6nc([C@@H]7C[C@H]8C[C@H]8N7C(=O)[C@@H](NC(=O)OC)C(C)C)[nH]c65)cc3-4)[nH]2)N(C(=O)[C@H](NC(=O)OC)c2ccccc2)C1` [Example 633]: the EC50 is 1 to 999 pM in test [1]; 0.02 nM in test [2]; 1 to 999 pM in test [3]; 1 to 999 pM in test [4]; 1 to 990 pM in test [5]; 1 to 999 pM in test [6]. In test [7], the EC50 is 1 to 999 pM.

As for `CC#Cc1cc2nc([C@@H]3CCCN3C(=O)[C@@H](NC(=O)OC)C(C)C)[nH]c2c2ccc(-c3ccc4c(ccc5nc([C@@H]6C[C@H](COC)CN6C(=O)[C@H](N)c6ccccc6)[nH]c54)c3)cc12` [Example 593], the EC50 is 1 to 999 pM in test [1]; 0.014 nM in test [2]; 1 to 999 pM in test [3]; 1000 to 44000 pM in test [4]; 1 to 990 pM in test [5]; 1000 to 44000 pM in test [6]. For the same compound, the EC50 in test [7] was in the range of 1 to 999 pM.

As for `CC[C@H](C)[C@H](NC(=O)OC)C(=O)N1C[C@@H](C)C[C@H]1c1ncc(-c2ccc3c(c2)COc2cc4c(ccc5nc([C@@H]6C[C@H](COC)CN6C(=O)[C@H](NC(=O)OC)c6ccccc6)[nH]c54)cc2-3)[nH]1` [Example 639], the EC50 in test [1] was 1 to 999 pM; in test [2] it was 0.011 nM; in test [3], 1 to 999 pM; in test [4], 1 to 999 pM; in test [5] it was 1 to 990 pM; in test [6], 1 to 999 pM. The EC50 in test [7] was in the range of 1 to 999 pM.

In the case of `COC[C@H]1C[C@@H](c2nc3ccc4cc5c(cc4c3[nH]2)OCc2cc(-c3cnc([C@@H]4CC[C@H](C)N4C(=O)[C@@H](NC(=O)OC)C(C)C)[nH]3)ccc2-5)N(C(=O)[C@H](NC(=O)OC)c2ccccc2)C1` [Example 594], the EC50 in test [1] was 1 to 999 pM; in test [2], 0.013 nM; in test [3], 1 to 999 pM; in test [4], 1 to 999 pM; in test [5], 1 to 990 pM; in test [6], 1 to 999 pM. In addition, the EC50 in test [7] lay in the range of 1 to 999 pM.

With `COC[C@H]1C[C@@H](c2ncc(-c3ccc4c(c3)COc3cc5c(ccc6nc([C@@H]7CCCN7C(=O)[C@H](NC(=O)OC)c7ccccc7)[nH]c65)cc3-4)[nH]2)N(C(=O)[C@@H](NC(=O)OC)C(C)C)C1` [Example 625], the EC50 is 1 to 999 pM in test [1]; 0.031 nM in test [2]; 1 to 999 pM in test [3]; 1 to 999 pM in test [4]; 1 to 990 pM in test [5]; 1 to 999 pM in test [6]. Moreover, the EC50 in test [7] was in the range of 1 to 999 pM.

Take `COC(=O)N[C@H](C(=O)N1[C@@H](C)CC[C@H]1c1nc2ccc3cc4c(cc3c2[nH]1)OCc1cc(-c2cnc([C@@H]3C[C@H](C)CN3C(=O)[C@H](NC(=O)OC)c3ccccc3)[nH]2)ccc1-4)C(C)C` [Example 609]: the EC50 in test [1] was 1 to 999 pM; in test [2] it was 0.005 nM; in test [3] it was 1 to 999 pM; in test [4], 1 to 999 pM; in test [5] it was 1 to 990 pM; in test [6], 1 to 999 pM. Besides, the EC50 in test [7] lay within 1 to 999 pM.

On to `COC(=O)N[C@H](C(=O)N1C[C@@H](C)C[C@H]1c1ncc(-c2ccc3c(c2)COc2cc4c(ccc5nc([C@@H]6CC[C@H](C)N6C(=O)[C@@H](NC(=O)OC)C(C)C)[nH]c54)cc2-3)[nH]1)C(C)C` [Example 613], for which the EC50 in test [1] lay in the range of 1 to 999 pM; in test [3] it was 1 to 999 pM; in test [4], 1 to 999 pM; in test [5], 1 to 990 pM; in test [6], 1 to 999 pM; in test [7] it was 1 to 999 pM.

Consider `COC(=O)N[C@H](C(=O)N1[C@@H](C)CC[C@H]1c1nc2ccc3cc4c(cc3c2[nH]1)OCc1cc(-c2cnc([C@@H]3C[C@H](C)CN3C(=O)[C@@H](NC(=O)OC)[C@@H](C)OC)[nH]2)ccc1-4)C(C)C` [Example 612], for which the EC50 in test [1] was in the range of 1 to 999 pM; in test [3] it was 1 to 999 pM; in test [4], 1 to 999 pM; in test [5] it was 1 to 990 pM; in test [6], 1 to 999 pM; in test [7], 1 to 999 pM.

Regarding `COC(=O)N[C@H](C(=O)N1[C@@H](C)CC[C@H]1c1ncc(-c2ccc3c(c2)COc2cc4c(ccc5nc([C@@H]6CCCN6C(=O)[C@@H](NC(=O)OC)[C@@H](C)OC)[nH]c54)cc2-3)[nH]1)C(C)C` [Example 603], the EC50 in test [1] lay within 1 to 999 pM; in test [3], 1 to 999 pM; in test [4], 1 to 999 pM; in test [5], 1 to 990 pM; in test [6], 1 to 999 pM; in test [7], 1 to 999 pM.
